Assay results from US12371748B2, “Genetic markers for predicting responsiveness to therapy with HDL-raising or HDL mimicking agent” (Hoffmann-La Roche Inc., priority 2014, dated 2025).

Test system: patients recently hospitalized for an Acute Coronary Syndrome (ACS)
Assay: dal-OUTCOMES pharmacogenomic study: cardiovascular events by ADCY9 genotype (Cox proportional hazards)
Assay type: in vivo, human
Parameters: key to Responsiveness to treatment: NR = non-responsive; PR = partially responsive; R = responsive
Settings: for HR, dal-OUTCOMES: per copy of minor allele; for Hazard ratio (dal vs placebo): time to events
Experimental: Dal-OUTCOMES trial (NC20971) was a double blind, randomized, placebo-controlled, parallel group, multi-center, phase III study to assess the safety and efficacy of the CETP inhibitor dalcetrapib in patients recently hospitalized for an Acute Coronary Syndrome (ACS). At time of the interim analysis the study included 15871 randomized patients, distributed over two treatment arms: placebo (7933 patients) and dalcetrapib (600 mg daily; 7938 patients). […] The dal-OUTCOMES study details can be found in G. Schwartz et al., N. Engl. J. Med. 367; 22, 2012.
dal-Outcomes patients were recruited 4 to 12 weeks following hospitalization for acute coronary syndrome characterized by elevated cardiac biomarkers, with symptoms of acute myocardial ischemia, ischemic electrocardiographic abnormalities that were new or presumed to be new, or loss of viable myocardium on imaging. Patients without elevated cardiac biomarkers were eligible to participate if symptoms of acute myocardial ischemia were accompanied by electrocardiographic changes that were new or presumed to be new and by additional evidence of obstructive coronary disease. (Schwartz G G et al. Am Heart J 2009; 158:896-901 e3).
All patients were following individualized programs to target LDL cholesterol levels of 100 mg per deciliter (2.6 mmol per liter) or lower by statin if tolerated and diet. No specific statin agent was specified, and patients were not excluded based on LDL cholesterol values. Patients with serum triglyceride levels of 400 mg per deciliter (4.5 mmol per liter) or higher were excluded. (Schwartz G G et al. N Engl J Med 2012; 367:2089-99) Eligible participants to the dal-Outcomes trial entered a single-blind placebo run-in period of approximately 4 to 6 weeks to allow for patients to stabilise and for completion of planned revascularisation procedures. At the end of the run-in period, eligible patients in stable condition were randomised in a 1:1 ratio to 600 mg of dalcetrapib or placebo on top of evidence-based medical care for acute coronary syndrome. Cardiovascular events were adjudicated by an independent clinical endpoint committee. For the pharmacogenomics study, 6338 patients were recruited from April 2008 through July 2010 at 461 sites in 14 countries and provided written informed consent to participate to the genetic study of the dal-OUTCOMES trial. DNA was extracted from whole blood. Following genomic data cleanup, samples from 5749 Caucasian patients were used for the discovery genome-wide association study (GWAS).
The Illumina Infinium HumanOmni2.5Exome-8v1_A BeadChip including 2,567,845 genetic variants (Illumina, San Diego, California) was used for the discovery GWAS of 5749 Caucasian participants to the dal-OUTCOMES study. The chromosome 16 region including 5 genes upstream and downstream of the adenylate cyclase type 9 (ADCY9) gene (CHR16: 3,400,000-4,600,000) was imputed using IMPUTE2, providing 17,764 variants for analysis with an average completion rate of 99.76%. A Sequenom panel was used for the confirmation of imputed single nucleotide polymorphisms (SNPs) in the ADCY9 gene identified in dal-OUTCOMES and were tested in the dal-PLAQUE-2 study, including 20 SNPs with P values<0.05 from the discovery GWAS.
Genome-wide association study (GWAS)—Genome-wide genotyping was performed using 200 ng of genomic DNA in GLP-environment at the Beaulieu-Saucier Pharmacogenomics Centre (Montreal, Canada). The Illumina Infinium HumanOmni2.5Exome-8v1_A BeadChip (Illumina, San Diego, CA) including 2,567,845 genomic markers was used and processed according to the manufacturer's specifications. This chip includes over 200,000 exome variants identified through the Exome Chip Consortium. The remaining BeadChip content is a mix of rare and common SNPs from the 1000 Genome Project designed to be maximally informative for diverse world populations. Each BeadChip was scanned and analyzed using the Illumina iScan Reader. […]

## CCC(CC)CC1(C(=O)Nc2ccccc2SC(=O)C(C)C)CCCCC1 [dalcetrapib, thioisobutyric acid S-(2-{[1-(2-ethyl-butyl)-cyclohexanecarbonyl]-amino}-phenyl) ester]
Dalcetrapib arm, genetic effect
  HR, association of rs2238448 with events in dal-OUTCOMES: 0.67
Dalcetrapib arm, rs1967309 AA
  Patients with events: 38
  Patients without events: 447
Dalcetrapib arm, rs1967309 AG
  Patients with events: 176
  Patients without events: 1203
Dalcetrapib arm, rs1967309 GG
  Patients with events: 176
  Patients without events: 802
rs1967309, Cox additive genetic model
  HR, dal-OUTCOMES: 0.651
rs1967309 AA
  HR, dalcetrapib compared to placebo, coronary revascularizations removed from the endpoint: 0.60
  Responsiveness to treatment: R
  Hazard ratio (dal vs placebo): 0.625
rs1967309 AA (n=961)
  reduction in pre-specified composite endpoint with dalcetrapib compared to placebo: 39%
rs1967309 AA (n=961), discovery cohort
  HR, composite endpoint, dalcetrapib compared to placebo: 0.61
rs1967309 AG
  Responsiveness to treatment: PR
  Hazard ratio (dal vs placebo): 0.953
rs1967309 GG
  Responsiveness to treatment: NR
  Hazard ratio (dal vs placebo): 1.248
rs1967309 GG (n=1984)
  increase in cardiovascular events, dalcetrapib versus placebo: 27%
rs1967309 GG (n=1984), discovery cohort
  HR, cardiovascular events, dalcetrapib versus placebo: 1.27
rs1967309 heterozygous AG
  response to dalcetrapib in words: intermediate response
rs1967309 heterozygous AG (n=2796), discovery cohort
  HR, cardiovascular events, dalcetrapib versus placebo: 0.94
rs2238448, Cox additive genetic model
  HR, dal-OUTCOMES: 0.671
rs2238448 CC
  Responsiveness to treatment: NR
  Hazard ratio (dal vs placebo): 1.291
rs2238448 CT
  Responsiveness to treatment: PR
  Hazard ratio (dal vs placebo): 0.974
rs2238448 TT
  Responsiveness to treatment: R
  Hazard ratio (dal vs placebo): 0.657
rs2239310, Cox additive genetic model
  HR, dal-OUTCOMES: 0.674
rs2239310 AA
  Responsiveness to treatment: NR
  Hazard ratio (dal vs placebo): 1.150
rs2239310 AG
  Responsiveness to treatment: PR
  Hazard ratio (dal vs placebo): 0.971
rs2239310 GG
  Responsiveness to treatment: R
  Hazard ratio (dal vs placebo): 0.623
rs2283497, Cox additive genetic model
  HR, dal-OUTCOMES: 0.766
rs2283497 GG
  Responsiveness to treatment: NR
  Hazard ratio (dal vs placebo): 1.226
rs2283497 GT
  Responsiveness to treatment: PR
  Hazard ratio (dal vs placebo): 0.999
rs2283497 TT
  Responsiveness to treatment: R
  Hazard ratio (dal vs placebo): 0.581
rs2531967, Cox additive genetic model
  HR, dal-OUTCOMES: 0.734
rs2531967 AA
  Responsiveness to treatment: R
  Hazard ratio (dal vs placebo): 0.786
rs2531967 AG
  Responsiveness to treatment: PR
  Hazard ratio (dal vs placebo): 0.855
rs2531967 GG
  Responsiveness to treatment: NR
  Hazard ratio (dal vs placebo): 1.121
rs2531971, Cox additive genetic model
  HR, dal-OUTCOMES: 0.664
rs2531971 AA
  Responsiveness to treatment: R
  Hazard ratio (dal vs placebo): 0.660
rs2531971 AC
  Responsiveness to treatment: PR
  Hazard ratio (dal vs placebo): 0.965
rs2531971 CC
  Responsiveness to treatment: NR
  Hazard ratio (dal vs placebo): 1.254
rs3730119, Cox additive genetic model
  HR, dal-OUTCOMES: 0.763
rs3730119 AA
  Responsiveness to treatment: R
  Hazard ratio (dal vs placebo): 0.472
rs3730119 AG
  Responsiveness to treatment: PR
  Hazard ratio (dal vs placebo): 0.887
rs3730119 GG
  Responsiveness to treatment: NR
  Hazard ratio (dal vs placebo): 1.059
rs4786454, Cox additive genetic model
  HR, dal-OUTCOMES: 0.668
rs4786454 AA
  Responsiveness to treatment: R
  Hazard ratio (dal vs placebo): 0.573
rs4786454 AG
  Responsiveness to treatment: PR
  Hazard ratio (dal vs placebo): 0.91
rs4786454 GG
  Responsiveness to treatment: NR
  Hazard ratio (dal vs placebo): 1.062
rs8049452, Cox additive genetic model
  HR, dal-OUTCOMES: 1.413
rs8049452 CC
  Responsiveness to treatment: R
  Hazard ratio (dal vs placebo): 0.804
rs8049452 CT
  Responsiveness to treatment: PR
  Hazard ratio (dal vs placebo): 0.971
rs8049452 TT
  Responsiveness to treatment: NR
  Hazard ratio (dal vs placebo): 1.543
rs8061182, Cox additive genetic model
  HR, dal-OUTCOMES: 1.343
rs8061182 CC
  Responsiveness to treatment: NR
  Hazard ratio (dal vs placebo): 1.52
rs8061182 CT
  Responsiveness to treatment: PR
  Hazard ratio (dal vs placebo): 0.99
rs8061182 TT
  Responsiveness to treatment: R
  Hazard ratio (dal vs placebo): 0.815
rs11647778, Cox additive genetic model
  HR, dal-OUTCOMES: 0.678
rs11647778 CC
  Responsiveness to treatment: R
  Hazard ratio (dal vs placebo): 0.691
rs11647778 CG
  Responsiveness to treatment: PR
  Hazard ratio (dal vs placebo): 0.966
rs11647778 GG
  Responsiveness to treatment: NR
  Hazard ratio (dal vs placebo): 1.300
rs11647828, Cox additive genetic model
  HR, dal-OUTCOMES: 0.696
rs11647828 CC
  Responsiveness to treatment: R
  Hazard ratio (dal vs placebo): 0.647
rs11647828 CT
  Responsiveness to treatment: PR
  Hazard ratio (dal vs placebo): 0.963
rs11647828 TT
  Responsiveness to treatment: NR
  Hazard ratio (dal vs placebo): 1.315
rs12595857, Cox additive genetic model
  HR, dal-OUTCOMES: 0.677
rs12595857 AA
  Responsiveness to treatment: NR
  Hazard ratio (dal vs placebo): 1.255
rs12595857 AG
  Responsiveness to treatment: PR
  Hazard ratio (dal vs placebo): 0.954
rs12595857 GG
  Responsiveness to treatment: R
  Hazard ratio (dal vs placebo): 0.719
rs12599911, Cox additive genetic model
  HR, dal-OUTCOMES: 0.674
rs12599911 GG
  Responsiveness to treatment: R
  Hazard ratio (dal vs placebo): 0.672
rs12599911 GT
  Responsiveness to treatment: PR
  Hazard ratio (dal vs placebo): 0.982
rs12599911 TT
  Responsiveness to treatment: NR
  Hazard ratio (dal vs placebo): 1.244
rs12920508, Cox additive genetic model
  HR, dal-OUTCOMES: 0.669
rs12920508 CC
  Responsiveness to treatment: NR
  Hazard ratio (dal vs placebo): 1.205
rs12920508 CG
  Responsiveness to treatment: PR
  Hazard ratio (dal vs placebo): 0.946
rs12920508 GG
  Responsiveness to treatment: R
  Hazard ratio (dal vs placebo): 0.676
rs12935810, Cox additive genetic model
  HR, dal-OUTCOMES: 1.377
rs12935810 AA
  Responsiveness to treatment: NR
  Hazard ratio (dal vs placebo): 1.260
rs12935810 AG
  Responsiveness to treatment: NR
  Hazard ratio (dal vs placebo): 1.043
rs12935810 GG
  Responsiveness to treatment: R
  Hazard ratio (dal vs placebo): 0.796
rs13337675, Cox additive genetic model
  HR, dal-OUTCOMES: 0.834
rs13337675 AA
  Responsiveness to treatment: NR
  Hazard ratio (dal vs placebo): 1.070
rs13337675 AG
  Responsiveness to treatment: PR
  Hazard ratio (dal vs placebo): 0.904
rs13337675 GG
  Responsiveness to treatment: PR
  Hazard ratio (dal vs placebo): 1.034
rs17136707, Cox additive genetic model
  HR, dal-OUTCOMES: 0.594
rs17136707 CC
  Responsiveness to treatment: R
  Hazard ratio (dal vs placebo): 0.552
rs17136707 CT
  Responsiveness to treatment: PR
  Hazard ratio (dal vs placebo): 0.835
rs17136707 TT
  Responsiveness to treatment: NR
  Hazard ratio (dal vs placebo): 1.058
rs74702385, Cox additive genetic model
  HR, dal-OUTCOMES: 0.599
rs74702385 CC
  Responsiveness to treatment: NR
  Hazard ratio (dal vs placebo): 1.053
rs74702385 CT
  Responsiveness to treatment: R
  Hazard ratio (dal vs placebo): 0.854
rs74702385 TT
  Responsiveness to treatment: R
  Hazard ratio (dal vs placebo): 0.348
rs111590482, Cox additive genetic model
  HR, dal-OUTCOMES: 0.606
rs111590482 CC
  Responsiveness to treatment: R
  Hazard ratio (dal vs placebo): 0.333
rs111590482 CT
  Responsiveness to treatment: R
  Hazard ratio (dal vs placebo): 0.856
rs111590482 TT
  Responsiveness to treatment: NR
  Hazard ratio (dal vs placebo): 1.054
Whole study population, 600 mg daily, interim analysis
  event rate in the primary efficacy endpoint, dalcetrapib arm compared to placebo arm: no evidence of reduction of the event rate
Within dalcetrapib arm
  HR for cardiovascular events, AA compared to reference GG homozygotes at rs1967309: 0.40
  HR for cardiovascular events, AG compared to reference GG homozygotes at rs1967309: 0.68
